Read-outs that look alike come from different tables or passages of the source.
How the values were obtained:
[1] = molecular target: T1, CDK12 (aa686-1082)/Cyclin K complex (Homo sapiens, UniProt Q9NYV4); test: CDK12 inhibition assay (Caliper/LabChip EZ Reader kinase assay); format: biochemical; conditions: Table 1, CDK12 (aa686-1082)/Cyclin K 50 nM, ATP 2 mM, 3 hr at 27° C.
T1 construct: CDK12 (aa686-1082)/Cyclin K complex

A673 cells = test: Inhibition of proliferation of A673 cells (CyQUANT, 72 hour); format: cell-based, human; conditions: A673 cells, 72 hour, CyQUANT, read-out: Inhibition of Proliferation of A673 Cells (calculated IC50)
Method in brief: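 Human Ewing's sarcoma A673 cells in DMEM with 10% FBS and 1 mM sodium pyruvate, 37° C, 5% CO2, treated 72 h with compound from 4 μM to […] (0.5 log dilutions). Antiproliferative effect read by CyQUANT assay.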

[2] = molecular target: CDK7/Cyclin H/MAT1 complex (Homo sapiens, UniProt P50613); test: CDK7 inhibition assay (Caliper/LabChip EZ Reader kinase assay); format: biochemical; conditions: Table 1, CDK7/Cyclin H/MAT1 6 nM, ATP 2 mM, 35 min at 27° C.
CDK7/Cyclin H/MAT1 complex, sequence (P50613 whole entry, species assumed): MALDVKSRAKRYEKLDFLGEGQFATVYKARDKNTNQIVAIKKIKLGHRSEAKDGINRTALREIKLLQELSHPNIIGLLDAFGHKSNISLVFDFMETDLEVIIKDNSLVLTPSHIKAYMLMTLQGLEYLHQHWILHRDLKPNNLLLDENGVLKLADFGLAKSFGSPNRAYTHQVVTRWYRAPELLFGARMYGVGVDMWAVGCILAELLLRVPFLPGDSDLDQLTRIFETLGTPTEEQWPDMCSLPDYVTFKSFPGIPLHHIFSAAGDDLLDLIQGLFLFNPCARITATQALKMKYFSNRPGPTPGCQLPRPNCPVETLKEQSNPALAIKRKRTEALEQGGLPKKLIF
CDK7/Cyclin H/MAT1 complex, sequence (P51946 whole entry partner, species assumed): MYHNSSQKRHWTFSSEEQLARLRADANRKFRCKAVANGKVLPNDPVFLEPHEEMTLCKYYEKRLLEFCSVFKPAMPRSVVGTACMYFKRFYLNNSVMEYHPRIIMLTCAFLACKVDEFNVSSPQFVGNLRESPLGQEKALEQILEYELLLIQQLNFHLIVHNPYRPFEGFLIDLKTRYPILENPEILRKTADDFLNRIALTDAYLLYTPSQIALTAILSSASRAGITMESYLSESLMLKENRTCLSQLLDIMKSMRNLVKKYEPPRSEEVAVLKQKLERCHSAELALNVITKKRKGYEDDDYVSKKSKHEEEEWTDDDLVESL
CDK7/Cyclin H/MAT1 complex, sequence (P51948 whole entry partner, species assumed): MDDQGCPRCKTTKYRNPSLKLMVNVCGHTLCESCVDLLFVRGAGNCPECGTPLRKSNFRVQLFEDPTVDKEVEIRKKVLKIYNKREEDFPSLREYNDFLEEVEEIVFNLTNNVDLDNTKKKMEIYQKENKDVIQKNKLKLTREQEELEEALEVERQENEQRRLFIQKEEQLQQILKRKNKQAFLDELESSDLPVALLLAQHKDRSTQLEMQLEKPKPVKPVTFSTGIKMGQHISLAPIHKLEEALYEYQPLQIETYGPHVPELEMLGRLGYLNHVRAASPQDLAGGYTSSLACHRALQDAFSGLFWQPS
Method in brief: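 A Perkin Elmer Caliper/LabChip EZ Reader (Waltham, MA) platform served as the basis for this CDK7 kinase inhibition assay. The work was carried out by Biortus Biosciences, located in Jiangyin, Jiangsu Province, P.R. of China. Each CDK studied had its own kinase assay, and compounds were evaluated for their ability to block CDK7 activity.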

HCC70 cells = test: Inhibition of proliferation of HCC70 cells (CyQUANT Direct Cell Proliferation Assay, 72 hour); format: cell-based, human; conditions: read-out: Inhibition of Proliferation of HCC70 Cells (calculated IC50)
Method in brief: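 Human triple-negative breast cancer HCC70 cells cultured at 37° C, 5% CO2, with compound for 72 hour. Anti-proliferative effect read by CyQUANT Direct Cell Proliferation Assay. Dinaciclib, a CDK inhibitor analog and triptolide served as positive controls.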

CDK2/Cyclin E1 complex = CDK2/Cyclin E1 complex (Homo sapiens, UniProt P24941); test: CDK2 inhibition assay (Caliper/LabChip EZ Reader kinase assay); format: biochemical; conditions: Table 1, CDK2/Cyclin E1 0.5 nM, ATP 2 mM, 35 min at 27° C.
Method in brief: (§1)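 Caliper/LabChip EZ Reader mobility-shift assays. CDK9/Cyclin T1 at 8 nM with 2 μM 5-FAM-CDK9tide peptide and 10 mM MgCl2; CDK2/Cyclin E1 at 0.5 nM with 2 μM 5-FAM-CDK7tide and 2 mM MgCl2.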

CDK9/Cyclin T1 complex = CDK9/Cyclin T1 complex (Homo sapiens, UniProt P50750); test: CDK9 inhibition assay (Caliper/LabChip EZ Reader kinase assay); format: biochemical; conditions: Table 1, CDK9/Cyclin T1 8 nM, ATP 2 mM, 15 min at 27° C.
CDK9/Cyclin T1 complex, sequence (P50750 whole entry, species assumed): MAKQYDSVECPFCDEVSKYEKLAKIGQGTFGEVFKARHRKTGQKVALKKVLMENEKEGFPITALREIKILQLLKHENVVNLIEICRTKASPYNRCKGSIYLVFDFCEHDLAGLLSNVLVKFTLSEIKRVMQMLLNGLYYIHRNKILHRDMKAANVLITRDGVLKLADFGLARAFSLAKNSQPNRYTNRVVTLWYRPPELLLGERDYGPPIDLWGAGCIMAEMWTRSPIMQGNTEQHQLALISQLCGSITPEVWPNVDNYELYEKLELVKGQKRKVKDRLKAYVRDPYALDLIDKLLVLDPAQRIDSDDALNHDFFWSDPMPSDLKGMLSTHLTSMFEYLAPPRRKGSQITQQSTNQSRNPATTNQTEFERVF
CDK9/Cyclin T1 complex, sequence (O60563 whole entry partner, species assumed): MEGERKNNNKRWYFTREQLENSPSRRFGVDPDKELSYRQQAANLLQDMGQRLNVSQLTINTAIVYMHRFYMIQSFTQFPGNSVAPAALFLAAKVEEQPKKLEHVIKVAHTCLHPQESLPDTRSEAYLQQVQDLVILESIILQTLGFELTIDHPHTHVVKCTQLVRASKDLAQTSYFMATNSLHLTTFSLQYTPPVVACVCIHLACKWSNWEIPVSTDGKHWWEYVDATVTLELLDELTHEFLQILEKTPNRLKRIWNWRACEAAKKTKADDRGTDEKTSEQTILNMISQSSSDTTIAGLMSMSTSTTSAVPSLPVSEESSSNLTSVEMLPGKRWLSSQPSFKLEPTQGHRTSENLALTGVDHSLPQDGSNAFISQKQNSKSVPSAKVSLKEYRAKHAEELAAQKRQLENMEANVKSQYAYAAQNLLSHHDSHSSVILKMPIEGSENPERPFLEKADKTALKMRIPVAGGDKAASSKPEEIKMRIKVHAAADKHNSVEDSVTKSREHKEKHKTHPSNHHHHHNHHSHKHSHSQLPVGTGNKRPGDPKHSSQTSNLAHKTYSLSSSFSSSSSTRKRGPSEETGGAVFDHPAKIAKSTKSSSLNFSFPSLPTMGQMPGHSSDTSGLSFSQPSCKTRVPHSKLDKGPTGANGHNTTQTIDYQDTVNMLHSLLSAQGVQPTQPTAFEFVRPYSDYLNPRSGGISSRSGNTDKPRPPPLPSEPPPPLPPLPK
Method in brief: as §1

T1 sequence (Q9NYV4 686-1082, species assumed): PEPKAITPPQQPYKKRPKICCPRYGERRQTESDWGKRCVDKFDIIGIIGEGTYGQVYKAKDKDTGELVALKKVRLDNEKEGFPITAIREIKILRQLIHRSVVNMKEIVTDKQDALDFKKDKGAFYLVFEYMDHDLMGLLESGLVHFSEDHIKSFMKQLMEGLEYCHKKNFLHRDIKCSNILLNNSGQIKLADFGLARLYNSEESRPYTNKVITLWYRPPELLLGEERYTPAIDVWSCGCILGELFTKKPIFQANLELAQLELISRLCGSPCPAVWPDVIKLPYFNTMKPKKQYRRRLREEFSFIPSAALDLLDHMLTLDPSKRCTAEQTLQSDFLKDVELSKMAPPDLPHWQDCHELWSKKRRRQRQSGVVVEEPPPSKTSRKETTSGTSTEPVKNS
T1 sequence (O75909 whole entry partner, species assumed, the tested form may be a part): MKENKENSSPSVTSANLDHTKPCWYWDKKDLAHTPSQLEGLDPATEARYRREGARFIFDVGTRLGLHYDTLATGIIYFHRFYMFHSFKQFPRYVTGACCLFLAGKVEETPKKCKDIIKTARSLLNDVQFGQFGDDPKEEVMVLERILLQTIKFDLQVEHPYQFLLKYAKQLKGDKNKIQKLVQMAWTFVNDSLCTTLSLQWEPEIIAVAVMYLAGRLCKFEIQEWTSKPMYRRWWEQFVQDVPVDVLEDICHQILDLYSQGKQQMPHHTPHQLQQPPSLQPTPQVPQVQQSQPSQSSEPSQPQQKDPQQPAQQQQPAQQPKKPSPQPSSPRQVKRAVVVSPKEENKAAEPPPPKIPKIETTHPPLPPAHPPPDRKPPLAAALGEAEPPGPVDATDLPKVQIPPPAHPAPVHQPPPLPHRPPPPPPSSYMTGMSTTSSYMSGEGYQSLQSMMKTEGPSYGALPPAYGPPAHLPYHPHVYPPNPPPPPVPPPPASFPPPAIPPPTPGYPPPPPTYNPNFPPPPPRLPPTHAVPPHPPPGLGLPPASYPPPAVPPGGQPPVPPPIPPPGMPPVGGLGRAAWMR

| SMILES | IC50 [1] [nM] | IC50 [2] [nM] | IC50 (CDK2/Cyclin E1 complex) [nM] | IC50 (CDK9/Cyclin T1 complex) [nM] | IC50 (A673 cells; Homo sapiens, A673, 72 h) [nM] | IC50 (HCC70 cells; Homo sapiens, HCC70, 72 h) [nM] | IC50 (A673 cells) [nM] | other results |
| --- | --- | --- | --- | --- | --- | --- | --- | --- |
| O=c1[nH]cc(-c2ccc3c(-c4nc(N[C@H]5CCCNC5)ncc4C(F)(F)F)c[nH]c3c2)c(=O)[nH]1 [Compound 333, 5-[3-[2-[[(3S)-3-piperidyl]amino]-5-(trifluoromethyl)pyrimidin-4-yl]-1H-indol-6-yl]-1H-pyrimidine-2,4-dione] | 200 to 5000 | < 20 | > 5000 | > 5000 |  | 1000 to 5000 | 200 to 5000 | IC50 ([1]; listed as 139): > 5000 nM; IC50 ([2]; listed as 139): 20 to 200 nM; IC50 (CDK2/Cyclin E1 complex; listed as 139): > 5000 nM; IC50 (CDK9/Cyclin T1 complex; listed as 139): > 5000 nM |
| CC1(O)CCN(C(=O)c2ccc3c(-c4nc(N[C@H]5CCCNC5)ncc4C(F)(F)F)c[nH]c3c2)C1 (single isomer, unassigned) [Compound 221] | > 5000 | < 20 | > 5000 | > 5000 | 200 to 5000 | 100 to 1000 |  |  |
| CC1(C)CC[C@H](Nc2ncc(C(F)(F)F)c(-c3c[nH]c4ccccc34)n2)CN1 [Compound 190] | 200 to 5000 | < 20 | 200 to 5000 | 200 to 5000 | < 20 | 100 to 1000 |  |  |
| N#Cc1ccc2c(-c3nc(N[C@H]4CCCNC4)ncc3C(F)(F)F)c[nH]c2n1 [Compound 251, 3-[2-[[(3S)-3-piperidyl]amino]-5-(trifluoromethyl)pyrimidin-4-yl]-1H-pyrrolo [2,3-b] pyridine-6-carbonitrile] | 200 to 5000 | < 20 | 200 to 5000 | 200 to 5000 | < 20 | < 100 |  |  |
| O=C(c1cccc(-c2ccc3c(-c4nc(N[C@H]5CCCNC5)ncc4C(F)(F)F)c[nH]c3c2)c1)N1CCCC1 [Compound 340, [3-[3-[2-[[(3S)-3-piperidyl]amino]-5-(trifluoromethyl)pyrimidin-4-yl]-1H-indol-6-yl]phenyl]-pyrrolidin-1-yl-methanone] | 200 to 5000 | 20 to 200 | 200 to 5000 | 200 to 5000 |  | 1000 to 5000 | 200 to 5000 | IC50 ([1]; listed as 140): > 5000 nM; IC50 (CDK2/Cyclin E1 complex; listed as 140): > 5000 nM; IC50 (CDK9/Cyclin T1 complex; listed as 140): > 5000 nM |
| O=C1CC[C@H](Nc2ncc(Cl)c(-c3c[nH]c4ccccc34)n2)CN1 [Compound 159] | 200 to 5000 | 20 to 200 | 20 to 200 | 200 to 5000 | 200 to 5000 | 1000 to 5000 |  |  |
| FC(F)(F)c1cnc(N[C@@H]2CNC[C@H](c3nnc4ccccn34)C2)nc1-c1c[nH]c2ccccc12 [Compound 267] | 200 to 5000 | 20 to 200 | 200 to 5000 | 200 to 5000 |  |  | < 20 | IC50 (HCC70 cells): < 100 nM |

Second part, led by results:

| IC50 [1] [nM] | IC50 [2] [nM] | IC50 (CDK2/Cyclin E1 complex) [nM] | IC50 (CDK9/Cyclin T1 complex) [nM] | SMILES | IC50 (A673 cells; Homo sapiens, A673, 72 h) [nM] | IC50 (HCC70 cells; Homo sapiens, HCC70, 72 h) [nM] | IC50 (A673 cells) [nM] | other results |
| --- | --- | --- | --- | --- | --- | --- | --- | --- |
| 200 to 5000 | 20 to 200 | 200 to 5000 | 200 to 5000 | N#Cc1ccc2c(-c3nc(N[C@H]4CCCNC4)ncc3C(F)(F)F)c[nH]c2c1-c1ccnnc1 [Compound 261, 3-[2-[[(3S)-3-piperidyl]amino]-5-(trifluoromethyl)pyrimidin-4-yl]-7-pyridazin-4-yl-1H-indole-6-carbonitrile] | < 20 | < 100 |  |  |
| > 5000 | 200 to 5000 | > 5000 | > 5000 | C[C@H]1CCNC[C@H]1Nc1ncc(C(F)(F)F)c(-c2c[nH]c3ccccc23)n1 [Compound 285] | < 20 | < 100 |  |  |
| 200 to 5000 | 20 to 200 | 200 to 5000 | > 5000 | O=C(O)c1ccc2c(-c3nc(N[C@H]4CCCNC4)ncc3C(F)(F)F)c[nH]c2c1 [Compound 306, 3-[2-[[(3S)-3-piperidyl]amino]-5-(trifluoromethyl)pyrimidin-4-yl]-1H-indole-6-Carboxylic acid] |  | 100 to 1000 | 20 to 200 | IC50 ([1]; listed as 114): 200 to 5000 nM; IC50 ([2]; listed as 114): 20 to 200 nM; IC50 (CDK2/Cyclin E1 complex; listed as 114): 200 to 5000 nM; IC50 (CDK9/Cyclin T1 complex; listed as 114): 200 to 5000 nM |
| > 5000 | 20 to 200 | > 5000 | > 5000 | CCN1C[C@@H](Nc2ncc(C(F)(F)F)c(-c3c[nH]c4cc(S(C)(=O)=O)ccc34)n2)CC(C)(C)C1 [Compound 369, N-[(3S)-1-ethyl-5,5-dimethyl-3-piperidyl]-4-(6-methylsulfonyl-1H-indol-3-yl)-5-(trifluoromethyl)pyrimidin-2-amine] |  | 100 to 1000 | 20 to 200 | IC50 ([1]; listed as 129): 200 to 5000 nM; IC50 ([2]; listed as 129): 20 to 200 nM |
| 200 to 5000 | < 20 | 200 to 5000 | 200 to 5000 | N#C[C@@H]1CCN(C(=O)c2ccc3c(-c4nc(N[C@H]5CCCNC5)ncc4C(F)(F)F)c[nH]c3c2)C1 [Compound 292, (3R)-1-[3-[2-[[(3S)-3-piperidyl]amino]-5-(trifluoromethyl)pyrimidin-4-yl]-1H-indole-6-carbonyl] pyrrolidine-3-carbonitrile] | 20 to 200 | 100 to 1000 |  | IC50 ([1]; listed as 107): 20 to 200 nM; IC50 (A673 cells; listed as 107): < 20 nM; IC50 ([2]; listed as 107): 20 to 200 nM; IC50 (CDK2/Cyclin E1 complex; listed as 107): 200 to 5000 nM; IC50 (CDK9/Cyclin T1 complex; listed as 107): 200 to 5000 nM |
| 200 to 5000 | < 20 | 200 to 5000 | 200 to 5000 | FC(F)(F)c1cnc(N[C@H]2CCCNC2)nc1-c1c[nH]c2cc(-c3ccn[nH]3)ccc12 [Compound 291, N-[(3S)-3-piperidyl]-4-[6-(1H-pyrazol-3-yl)-1H-indol-3-yl]-5-(trifluoromethyl) pyrimidin-2-amine] | 20 to 200 | 100 to 1000 |  |  |
| 200 to 5000 | < 20 | 200 to 5000 | 200 to 5000 | CCN1CCC[C@H](Nc2ncc(C(F)(F)F)c(-c3c[nH]c4cc(C#N)ccc34)n2)C1 [Compound 284] | 20 to 200 | 100 to 1000 |  |  |
| 200 to 5000 | 20 to 200 | 200 to 5000 | 200 to 5000 | FC(F)n1cc(-c2ccc3c(-c4nc(N[C@H]5CCCNC5)ncc4C(F)(F)F)c[nH]c3c2)cn1 [Compound 290, 4-[6-[1-(difluoromethyl)pyrazol-4-yl]-1H-indol-3-yl]-N-[(3S)-3-piperidyl]-5-(trifluoromethyl) pyrimidin-2-amine] | 20 to 200 | 100 to 1000 |  |  |

Reference: US20240360165A1, “INHIBITORS OF CYCLIN DEPENDENT KINASE 7 (CDK7)” (Syros Pharmaceuticals, Inc., priority 2016, published 2024)
